From paper PMC4770324 (Journal of Medicinal Chemistry, 2016)

Test: Chemical stability on storage

chemical stability in air: chemical instability
SMILES: O=c1[nH]cnc2c(-n3cc(CCN4CCC(c5cc(F)cc(F)c5)CC4)cn3)nccc12 [Compound 54l]
